Assay results: ChEMBL document CHEMBL4665783, “N-terminal modified cyclopeptidic mimetics of Apollo as inhibitors of TRF2” (Bioorg Med Chem Lett, 2020)

The molecules below were run against T1, Telomeric repeat-binding factor 2 (Homo sapiens, UniProt Q15554) (assay: Binding affinity to biotinylated TRF2 (unknown origin) by biolayer interferometry assay).
T1 sequence (Q15554 whole entry): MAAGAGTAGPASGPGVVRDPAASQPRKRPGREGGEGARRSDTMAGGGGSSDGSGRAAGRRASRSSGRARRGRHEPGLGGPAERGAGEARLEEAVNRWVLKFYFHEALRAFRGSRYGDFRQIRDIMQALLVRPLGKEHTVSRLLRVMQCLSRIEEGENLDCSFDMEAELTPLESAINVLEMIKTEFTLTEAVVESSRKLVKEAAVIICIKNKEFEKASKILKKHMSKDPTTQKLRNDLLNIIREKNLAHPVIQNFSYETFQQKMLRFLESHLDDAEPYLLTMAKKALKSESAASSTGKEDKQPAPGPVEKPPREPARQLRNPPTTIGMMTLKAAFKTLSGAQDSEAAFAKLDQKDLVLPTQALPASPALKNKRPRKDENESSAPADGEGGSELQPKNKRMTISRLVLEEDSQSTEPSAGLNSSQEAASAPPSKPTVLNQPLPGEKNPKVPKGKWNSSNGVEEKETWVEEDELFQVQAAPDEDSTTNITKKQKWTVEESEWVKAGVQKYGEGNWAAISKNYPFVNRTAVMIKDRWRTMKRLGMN
Work on `CC(C)C[C@@H]1NC(=O)[C@@H](NC(=O)c2cc(OCc3ccccc3)cc(OCC3CC3)c2)COCCCCOC[C@@H](C(=O)N(C)C)NC(=O)[C@@H]2CCCN2C(=O)[C@H](C)NC1=O` yielded a Kd of 2.5 µM.

What follows are molecules tested against T1, Telomeric repeat-binding factor 2 (assay: Binding affinity to TRFH domain of TRF2 (residues 42 to 245) (unknown origin) by FP based assay).
For `CC(C)C[C@@H]1NC(=O)[C@@H](NC(=O)c2cc(OCc3ccccc3)cc(OC3CCC3)c2)COCCCCOC[C@@H](C(=O)N(C)C)NC(=O)[C@@H]2CCCN2C(=O)[C@H](C)NC1=O`, the Ki was 4.9 µM.
`CC(C)C[C@@H]1NC(=O)[C@@H](NC(=O)c2cc(OCc3ccccc3)cc(OC(C)C)c2)COCCCCOC[C@@H](C(=O)N(C)C)NC(=O)[C@@H]2CCCN2C(=O)[C@H](C)NC1=O` was tested, and the Ki was 11 µM.
Work on Ac-LALKYLLTPV-NH2 yielded a Ki of 0.33 µM.
`CC(C)C[C@@H]1NC(=O)[C@@H](NC(=O)c2cc(OCc3ccccc3)cc(OCC3CCCC3)c2)COCCCCOC[C@@H](C(=O)N(C)C)NC(=O)[C@@H]2CCCN2C(=O)[C@H](C)NC1=O` gave a Ki of 6.9 µM.
Work on `CC(C)C[C@@H]1NC(=O)[C@@H](NC(=O)c2cc(OCCN)cc(OCc3ccccc3)c2)COCCCCOC[C@@H](C(=O)N(C)C)NC(=O)[C@@H]2CCCN2C(=O)[C@H](C)NC1=O` yielded a Ki of 35 µM.
Work on `CC(C)C[C@@H]1NC(=O)[C@@H](NC(=O)c2cc(OCc3ccccc3)cc(OCC3CC3)c2)COCCCCOC[C@@H](C(=O)N(C)C)NC(=O)[C@@H]2CCCN2C(=O)[C@H](C)NC1=O` yielded a Ki of 4.2 µM.
In the case of `CC(C)C[C@@H]1NC(=O)[C@@H](NC(=O)c2cc(OCc3ccccc3)cc(OCC3CCC3)c2)COCCCCOC[C@@H](C(=O)N(C)C)NC(=O)[C@@H]2CCCN2C(=O)[C@H](C)NC1=O`, the Ki is reported as 4.3 µM.
Work on `CC(C)C[C@@H]1NC(=O)[C@@H](NC(=O)c2cc(OCc3ccccc3)cc(OC3CCCC3)c2)COCCCCOC[C@@H](C(=O)N(C)C)NC(=O)[C@@H]2CCCN2C(=O)[C@H](C)NC1=O` yielded a Ki of 5.1 µM.
